Earlier results as cited in article PMC3074188 (Journal of natural products, 2010).

System: HT-29 cell line

## CC(C)C[C@H](NC(=O)[C@H](Cc1ccccc1)NC(=O)c1cnccn1)B(O)O [bortezomib]
  sensitivity of HT-29 cell line (in words): sensitive
